Results as given in patent US12631644B2, “Biomarker panel targeted to diseases due to multifactorial ontology of glycocalyx disruption” (Arterez, Inc., priority 2019, dated 2026).

Columns and labels:
inflammation and plaque = test: Average disease scores (aortic sinus histology) in high-fat diet mice, Example 1; assay type: in vivo, mouse; conditions: FIG. 9; per group and time point; gavage 150 μmol/kg
Description: For a pilot study, forty-eight 10-week old male C57/Bl6 mice were obtained from Jackson Laboratories. Three mice were raised from 6 weeks on a regular diet and served as controls, and the remaining 45 were raised on a 60% fat diet (D12451, DIO series diet, Opensource Diets). For a bacterial dosage test, sixteen 10-week old male C57/Bl6 mice were divided into four treatment groups and maintained on a normal diet.
3,3′,4,4′-Tetrachlorobiphenyl (PCB-77) was obtained from Neosyn Laboratories. 100 mg of the dry chemical was suspended in 15.22 ml of corn oil to deliver 150 μmol/kg in 0.2 ml per mouse. […]
The hearts were prepared as frozen sections: they were mounted in blocks, and 10 μm-thick sections were cut through the aortic valve, to yield 30 sections per mouse. […] Multiple 10-μm sections at the level of the aortic sinus were analyzed for the presence of Oil Red O lipid staining, plaque size, amount of fibrous tissue, and inflammation. The percentage of the lumen occupied by the first three features was calculated using Image Pro Plus. […] The level of inflammation in each section was scored on the following scale: 0=no inflammatory cells observed, 1=few macrophages with no giant cells, 2=foam cells present, 3=foam cells with cholesterol, 4=foam cells, giant cells, and cholesterol present. […]

TNF-α = target: T1, TNF-α (Homo sapiens, UniProt P01375); conditions: humans; 2009 Atherosclerosis 202:296-303; cited from earlier work
T1 construct: host or cells: human subjects (in vivo, endogenous TNF-α)
T1 sequence (P01375 77-233 limits assumed): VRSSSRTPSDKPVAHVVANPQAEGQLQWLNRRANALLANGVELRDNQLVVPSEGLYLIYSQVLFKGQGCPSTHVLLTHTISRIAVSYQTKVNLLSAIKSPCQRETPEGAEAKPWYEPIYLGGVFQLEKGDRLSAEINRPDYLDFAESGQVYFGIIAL

Compound	risk factor for producing inflammation and plaque (average disease scores) (inflammation and plaque)	shedding of glycocalyx constituents, coagulation activation, vessel function (TNF-α)
Clc1ccc(-c2ccc(Cl)c(Cl)c2)cc1Cl [PCB77, 3,3′,4,4′-Tetrachlorobiphenyl]	most significant risk factor to producing inflammation and plaque	–
etanercept	–	reduces the shedding of glycocalyx constituents, coagulation activation, and functional vessel function
